Test results reported in publication PMC9719519, “Non-classical ferroptosis inhibition by a small molecule targeting PHB2” (Nature Communications, 2022).

How the values were obtained:
Assay in all cases: biochemical
Design in all cases: Eurofins recombinant human kinase profiling, remaining kinase activity as % of control, 10 uM ATP
Conditions in all cases: ATP 10 uM; read-out: %Ctrl@10 μM
[1] = target: SGK3(h) (Homo sapiens, UniProt Q96BR1)
Procedure, shortened: (§1)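 Activity measured in a commercial panel of 401 recombinant human protein kinases run as a kinase profiling service.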

[2] = target: mTOR(h) (Homo sapiens, UniProt P42345)
Procedure, shortened: as §1

[3] = target: EGFR(h) (Homo sapiens, UniProt P00533)
Procedure, shortened: as §1

[4] = target: Cdc7/cyclinB1(h) (Homo sapiens, UniProt O00311)
Procedure, shortened: as §1

[5] = target: T1, CDK5/p25(h) (Homo sapiens, UniProt Q00535)
T1 construct: p25
Procedure, shortened: as §1

[6] = target: Ret (V804L)(h) (Homo sapiens, UniProt P07949, V804L)
Chain of Ret (V804L)(h) (P07949 whole entry V804L): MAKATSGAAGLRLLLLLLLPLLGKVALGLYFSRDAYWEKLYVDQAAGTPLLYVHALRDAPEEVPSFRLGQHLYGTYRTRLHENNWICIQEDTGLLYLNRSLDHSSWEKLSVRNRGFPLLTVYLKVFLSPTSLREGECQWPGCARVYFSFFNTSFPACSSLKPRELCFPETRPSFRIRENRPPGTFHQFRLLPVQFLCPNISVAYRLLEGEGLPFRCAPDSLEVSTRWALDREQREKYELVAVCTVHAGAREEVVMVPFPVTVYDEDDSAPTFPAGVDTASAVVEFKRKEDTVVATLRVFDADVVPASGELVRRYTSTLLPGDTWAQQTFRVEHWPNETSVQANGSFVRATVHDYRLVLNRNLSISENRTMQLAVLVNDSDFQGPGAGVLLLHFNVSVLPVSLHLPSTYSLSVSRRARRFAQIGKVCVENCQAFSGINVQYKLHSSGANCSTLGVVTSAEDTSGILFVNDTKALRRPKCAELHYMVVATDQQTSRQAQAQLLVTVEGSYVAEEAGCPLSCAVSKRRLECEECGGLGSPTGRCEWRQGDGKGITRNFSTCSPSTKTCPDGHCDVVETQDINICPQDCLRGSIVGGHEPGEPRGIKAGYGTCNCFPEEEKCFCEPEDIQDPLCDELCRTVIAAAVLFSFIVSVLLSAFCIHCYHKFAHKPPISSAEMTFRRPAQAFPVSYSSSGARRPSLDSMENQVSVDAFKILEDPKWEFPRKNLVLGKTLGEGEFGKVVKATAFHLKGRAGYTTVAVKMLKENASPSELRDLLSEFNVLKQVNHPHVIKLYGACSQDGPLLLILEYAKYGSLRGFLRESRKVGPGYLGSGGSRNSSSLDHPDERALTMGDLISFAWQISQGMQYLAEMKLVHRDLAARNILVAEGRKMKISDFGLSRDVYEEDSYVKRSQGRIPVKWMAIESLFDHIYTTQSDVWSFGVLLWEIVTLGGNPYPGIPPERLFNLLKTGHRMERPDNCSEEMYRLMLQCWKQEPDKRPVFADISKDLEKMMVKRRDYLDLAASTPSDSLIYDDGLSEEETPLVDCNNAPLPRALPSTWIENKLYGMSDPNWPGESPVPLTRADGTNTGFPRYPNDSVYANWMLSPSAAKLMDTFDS
Procedure, shortened: as §1

[7] = target: T2, MAPK2(h) (Homo sapiens, UniProt P28482)
T2 construct: gene MAPK1
T2 sequence (P28482 whole entry): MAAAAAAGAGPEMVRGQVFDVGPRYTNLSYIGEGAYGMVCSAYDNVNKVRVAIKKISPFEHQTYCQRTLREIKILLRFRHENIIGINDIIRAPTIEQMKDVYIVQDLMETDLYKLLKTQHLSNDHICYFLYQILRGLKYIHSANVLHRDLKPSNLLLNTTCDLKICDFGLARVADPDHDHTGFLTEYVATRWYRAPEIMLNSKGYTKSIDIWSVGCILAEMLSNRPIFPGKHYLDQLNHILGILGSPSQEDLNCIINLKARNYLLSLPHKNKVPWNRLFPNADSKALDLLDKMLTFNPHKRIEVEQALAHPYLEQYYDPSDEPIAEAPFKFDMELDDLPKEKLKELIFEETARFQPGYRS
Procedure, shortened: as §1

[8] = target: T3, DCAMKL3(h) (Homo sapiens, UniProt Q9C098)
T3 construct: gene DCLK3
Procedure, shortened: as §1

[9] = target: LIMK1(h) (Homo sapiens, UniProt P53667)
Procedure, shortened: as §1

[10] = target: T4, TSSK1(h) (Homo sapiens, UniProt Q9BXA7)
T4 construct: gene TSSK1B
T4 sequence (Q9BXA7 whole entry): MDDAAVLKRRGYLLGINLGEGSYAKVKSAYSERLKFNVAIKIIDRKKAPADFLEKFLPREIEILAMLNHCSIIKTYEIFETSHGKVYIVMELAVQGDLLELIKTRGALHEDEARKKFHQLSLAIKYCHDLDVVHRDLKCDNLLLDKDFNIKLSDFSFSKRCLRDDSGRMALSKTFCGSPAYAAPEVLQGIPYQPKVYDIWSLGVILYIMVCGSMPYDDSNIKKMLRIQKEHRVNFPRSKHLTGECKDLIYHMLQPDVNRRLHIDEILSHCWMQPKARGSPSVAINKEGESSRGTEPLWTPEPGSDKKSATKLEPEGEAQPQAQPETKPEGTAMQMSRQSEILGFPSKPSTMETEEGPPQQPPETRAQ
Procedure, shortened: as §1

[11] = target: T5, MEKK3(h) (Homo sapiens, UniProt Q99759)
T5 construct: gene MAP3K3
Procedure, shortened: as §1

[12] = target: EphB4(h) (Homo sapiens, UniProt P54760)
Chain of EphB4(h) (P54760 whole entry): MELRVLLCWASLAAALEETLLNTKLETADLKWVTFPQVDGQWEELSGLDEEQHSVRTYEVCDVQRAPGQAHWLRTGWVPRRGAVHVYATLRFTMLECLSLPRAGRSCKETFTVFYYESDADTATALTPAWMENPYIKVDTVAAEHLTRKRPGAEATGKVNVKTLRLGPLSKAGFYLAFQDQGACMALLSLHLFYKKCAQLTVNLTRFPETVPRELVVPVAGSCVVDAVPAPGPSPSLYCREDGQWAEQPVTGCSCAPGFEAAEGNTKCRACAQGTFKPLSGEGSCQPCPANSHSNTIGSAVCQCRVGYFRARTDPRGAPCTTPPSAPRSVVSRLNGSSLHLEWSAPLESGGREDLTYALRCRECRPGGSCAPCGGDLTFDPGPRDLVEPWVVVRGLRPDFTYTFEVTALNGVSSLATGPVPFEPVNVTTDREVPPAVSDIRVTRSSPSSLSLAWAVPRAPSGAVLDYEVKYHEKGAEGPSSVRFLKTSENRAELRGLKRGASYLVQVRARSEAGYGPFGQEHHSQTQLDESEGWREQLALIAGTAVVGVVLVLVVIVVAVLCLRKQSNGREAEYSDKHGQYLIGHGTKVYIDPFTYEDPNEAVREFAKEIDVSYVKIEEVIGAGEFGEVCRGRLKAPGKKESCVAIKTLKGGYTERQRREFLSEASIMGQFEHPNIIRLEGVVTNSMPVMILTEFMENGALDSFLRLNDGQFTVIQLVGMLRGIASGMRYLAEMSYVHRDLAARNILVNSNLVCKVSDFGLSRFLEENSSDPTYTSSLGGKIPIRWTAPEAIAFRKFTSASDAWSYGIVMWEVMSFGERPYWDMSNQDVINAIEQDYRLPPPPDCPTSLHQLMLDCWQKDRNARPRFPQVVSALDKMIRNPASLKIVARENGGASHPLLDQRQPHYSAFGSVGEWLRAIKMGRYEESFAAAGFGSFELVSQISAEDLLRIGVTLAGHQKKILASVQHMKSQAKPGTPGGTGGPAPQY
Procedure, shortened: as §1

[13] = target: T6, ROCK-II(h) (Homo sapiens, UniProt O75116)
T6 construct: gene ROCK2
Procedure, shortened: as §1

[14] = target: VRK1(h) (Homo sapiens, UniProt Q99986)
Procedure, shortened: as §1

[15] = target: Flt4(h) (Homo sapiens, UniProt P35916)
Procedure, shortened: as §1

[16] = target: T7, Mer(h) (Homo sapiens, UniProt Q12866)
T7 construct: gene MERTK
T7 sequence (Q12866 whole entry): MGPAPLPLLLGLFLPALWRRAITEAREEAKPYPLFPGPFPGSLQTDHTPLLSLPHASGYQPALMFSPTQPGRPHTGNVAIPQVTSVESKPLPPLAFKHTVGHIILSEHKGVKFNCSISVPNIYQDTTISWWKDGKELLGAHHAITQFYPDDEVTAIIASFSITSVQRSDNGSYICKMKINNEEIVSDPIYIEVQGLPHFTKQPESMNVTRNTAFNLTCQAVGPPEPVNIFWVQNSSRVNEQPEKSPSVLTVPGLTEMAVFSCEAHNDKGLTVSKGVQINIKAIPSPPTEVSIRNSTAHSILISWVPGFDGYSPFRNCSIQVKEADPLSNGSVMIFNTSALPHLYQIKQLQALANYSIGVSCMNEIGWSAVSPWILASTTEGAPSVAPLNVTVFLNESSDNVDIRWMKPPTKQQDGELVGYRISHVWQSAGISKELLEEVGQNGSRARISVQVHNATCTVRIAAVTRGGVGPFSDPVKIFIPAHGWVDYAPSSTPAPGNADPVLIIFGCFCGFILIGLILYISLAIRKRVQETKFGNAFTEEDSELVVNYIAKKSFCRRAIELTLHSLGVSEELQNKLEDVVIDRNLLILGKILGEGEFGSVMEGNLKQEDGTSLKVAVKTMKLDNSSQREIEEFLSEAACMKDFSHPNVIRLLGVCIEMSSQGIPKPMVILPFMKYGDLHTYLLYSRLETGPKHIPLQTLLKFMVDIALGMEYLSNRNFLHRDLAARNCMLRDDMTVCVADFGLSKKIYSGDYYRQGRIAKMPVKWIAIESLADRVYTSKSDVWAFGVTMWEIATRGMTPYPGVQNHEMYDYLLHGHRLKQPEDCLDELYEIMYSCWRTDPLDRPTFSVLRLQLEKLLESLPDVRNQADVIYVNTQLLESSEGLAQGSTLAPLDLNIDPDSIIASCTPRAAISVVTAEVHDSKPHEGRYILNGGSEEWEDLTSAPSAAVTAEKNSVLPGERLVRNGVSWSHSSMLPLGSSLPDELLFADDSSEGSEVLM
Procedure, shortened: as §1

[17] = target: CDK14/cyclinY(h) (Homo sapiens, UniProt O94921)
Procedure, shortened: as §1

[18] = target: T8, CHK1(h) (Homo sapiens, UniProt O14757)
T8 construct: gene CHEK1
T8 sequence (O14757 whole entry): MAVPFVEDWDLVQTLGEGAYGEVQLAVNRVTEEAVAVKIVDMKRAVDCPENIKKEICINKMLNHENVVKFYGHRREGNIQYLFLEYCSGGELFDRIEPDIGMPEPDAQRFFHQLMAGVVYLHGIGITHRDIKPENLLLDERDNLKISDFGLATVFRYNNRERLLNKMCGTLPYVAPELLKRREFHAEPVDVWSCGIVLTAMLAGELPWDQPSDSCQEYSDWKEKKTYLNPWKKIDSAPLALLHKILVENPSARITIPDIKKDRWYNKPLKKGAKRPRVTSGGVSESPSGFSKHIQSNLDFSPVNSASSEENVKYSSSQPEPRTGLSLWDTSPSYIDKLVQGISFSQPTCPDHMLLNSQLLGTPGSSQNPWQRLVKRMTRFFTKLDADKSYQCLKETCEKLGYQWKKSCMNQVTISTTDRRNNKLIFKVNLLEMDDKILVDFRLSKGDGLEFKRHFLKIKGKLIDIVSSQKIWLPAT
Procedure, shortened: as §1

[19] = target: T9, PKD2(h) (Homo sapiens, UniProt Q9BZL6)
T9 construct: gene PRKD2
Procedure, shortened: as §1

[20] = target: T10, IRR(h) (Homo sapiens, UniProt P14616)
T10 construct: gene INSRR
Procedure, shortened: as §1

[21] = target: T11, TrkB(h) (Homo sapiens, UniProt Q16620)
T11 construct: gene NTRK2
Procedure, shortened: as §1

[22] = target: BTK(R28H)(h) (Homo sapiens, UniProt Q06187, R28H)
Chain of BTK(R28H)(h) (Q06187 whole entry R28H): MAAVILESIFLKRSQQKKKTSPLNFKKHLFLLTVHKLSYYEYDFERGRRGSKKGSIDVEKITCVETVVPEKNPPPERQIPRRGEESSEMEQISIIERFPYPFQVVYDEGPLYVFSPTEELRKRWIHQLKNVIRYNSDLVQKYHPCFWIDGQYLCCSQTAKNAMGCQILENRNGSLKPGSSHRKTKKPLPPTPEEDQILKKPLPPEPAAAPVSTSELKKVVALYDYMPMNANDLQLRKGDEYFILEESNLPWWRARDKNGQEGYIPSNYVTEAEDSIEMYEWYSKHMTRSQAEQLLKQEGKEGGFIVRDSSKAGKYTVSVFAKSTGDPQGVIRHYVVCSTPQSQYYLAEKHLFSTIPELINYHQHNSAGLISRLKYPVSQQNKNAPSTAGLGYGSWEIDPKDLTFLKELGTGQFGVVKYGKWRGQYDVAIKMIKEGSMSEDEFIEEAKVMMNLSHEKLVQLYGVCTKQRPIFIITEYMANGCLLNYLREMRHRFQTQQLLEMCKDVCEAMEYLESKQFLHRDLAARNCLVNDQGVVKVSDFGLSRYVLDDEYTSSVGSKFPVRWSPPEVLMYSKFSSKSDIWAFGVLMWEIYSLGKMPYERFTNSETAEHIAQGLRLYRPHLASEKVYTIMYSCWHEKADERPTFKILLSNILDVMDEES
Procedure, shortened: as §1

[23] = target: T12, AMPKα2(h) (Homo sapiens, UniProt P54646)
T12 construct: gene PRKAA2
Procedure, shortened: as §1

In the case of `C1=C(c2nc(-c3cnn(C4CCNCC4)c3)cn3cc(-c4ccccc4)nc23)CCOC1` [YL-939], the remaining activity at 10 µM [1] is reported as 83%, the remaining activity at 10 µM [2] is reported as 91% and the remaining activity at 10 µM [3] is reported as 87%. For the same molecule, the remaining activity at 10 µM [4] was 104%, the remaining activity at 10 µM [5] was 120% and the remaining activity at 10 µM [6] was 81%. The remaining activity at 10 µM [7] was 88%, the remaining activity at 10 µM [8] was 66% and the remaining activity at 10 µM [9] was 86%. It also gave a remaining activity at 10 µM [10] of 80%, a remaining activity at 10 µM [11] of 108% and a remaining activity at 10 µM [12] of 97%. It also gave a remaining activity at 10 µM [13] of 89%, a remaining activity at 10 µM [14] of 87% and a remaining activity at 10 µM [15] of 85%. It also gave a remaining activity at 10 µM [16] of 78%, a remaining activity at 10 µM [17] of 111% and a remaining activity at 10 µM [18] of 98%. The remaining activity at 10 µM [19] was 89%, the remaining activity at 10 µM [20] was 74% and the remaining activity at 10 µM [21] was 81%. It also gave a remaining activity at 10 µM [22] of 107% and a remaining activity at 10 µM [23] of 100%.
